Patent US20240101551A1, “CRYSTAL FORM AND SALT FORM OF BROMINE DOMAIN PROTEIN INHIBITOR AND PREPARATION METHOD THEREFOR” (CHIA TAI TIANQING PHARMACEUTICAL GROUP CO., LTD., priority 2020, published 2024)

Assay: Study on stability under influencing factors (high temperature, high humidity, light) of the crystal forms
Format: physicochemical
Procedure: In order to evaluate the solid stability of the crystal forms of the present application, the stability of each of the crystal form I, the crystal form A, the crystal form D, the crystal form E and the crystal form F under influencing factors (high temperature, high humidity and light) was investigated. Each of the crystal forms was stored under the high temperature condition (60±2° C., open (weighing bottle)), and the high humidity condition (room temperature, 92.5%±5% RH, open (weighing bottle) and packaged) for 5 days, 10 days and 30 days, and under the ICH light condition (5500 Lux, 0.9 w/m^2, closed (weighing bottle) and packaged) for 5 days and 10 days. The inner packaging material of the packaged sample was a medical low-density polyethylene bag, and the outer packaging material is a medical polyester/aluminum/polyethylene composite bag. The samples after the storage were characterized by properties, purity (HPLC), crystal form (XRD) and water content to detect the changes in the crystal form and purity. The results are shown in Tables 8-12 (“^#” indicates the ICH condition).

[1] = 92.5% RH, room temperature, open, 10 days
[2] = 92.5% RH, room temperature, open, 30 days
[3] = Light (ICH, 5500 Lux), closed, 10 days

Cn1cc(-c2nc(N=S(C)(C)=O)ccc2Oc2ccc(F)cc2F)c2cc[nH]c2c1=O [crystal form I]
Impurity content (60° C., open, 5 days): 1.23%
Crystal form change (60° C., open, 10 days): Unchanged
Impurity content (60° C., open, 10 days): 1.21%
Water content (60° C., open, 10 days): 0.19%
Crystal form change (60° C., open, 30 days): Unchanged
Impurity content (60° C., open, 30 days): 1.31%
Water content (60° C., open, 30 days): 0.15%
Crystal form change (92.5% RH, packaged, 30 days): Unchanged
Impurity content (92.5% RH, packaged, 30 days): 1.32%
Water content (92.5% RH, packaged, 30 days): 0.23%
Impurity content (92.5% RH, room temperature, open, 5 days): 1.23%
Crystal form change [1]: Unchanged
Impurity content [1]: 1.23%
Water content [1]: 0.36%
Crystal form change [2]: Unchanged
Impurity content [2]: 1.30%
Water content [2]: 0.31%
Crystal form change (Light (ICH), packaged, 10 days): Unchanged
Impurity content (Light (ICH), packaged, 10 days): 1.21%
Water content (Light (ICH), packaged, 10 days): 0.30%
Impurity content (Light (ICH, 5500 Lux), closed, 5 days): 1.18%
Crystal form change [3]: Unchanged
Impurity content [3]: 1.21%
Water content [3]: 0.34%
Impurity content (starting crystal form): 1.20%
Water content (starting crystal form): 0.39%
